Test results from patent US20250176602A1, “Composition for Proliferation of Bacteroides uniformis in the Intestinal Tract” (Asahi Group Holdings, Ltd., priority 2019, published 2025).

Assay: Exercise performance test, 10 km SPIN CYCLE travel time (Example 6)
Type: in vivo, human
Settings: after 8-week intake, about 1000 mg/day; p<0.05
Protocol: As the test subjects, 86 healthy males at the ages of 20 to 49 who have exercise habits of conducting exercise with an intensity of 5 METs or more for 30 minutes or more once or twice a week and who can continue the exercise habits during the test period as well were selected.
Among the 86 test subjects, 43 test subjects were selected as an α-cyclodextrin (αCD) intake group, and the remaining 43 test subjects were selected as a placebo group. The test subjects themselves were not informed who belonged to which group.
Test Supplements (tablets) having compositions described in Table 4 below were used. One tablet of the test supplements was of about 600 mg.
Each test subject of the αCD intake group and the placebo group was asked to take in 4 tablets of the above test supplements once a day at any timing. That is, each test subject of the α-cyclodextrin intake group was asked to take in about 1000 mg of α-cyclodextrin per day.
The intake period for the test supplements was set to 8 weeks, and the heart rate during exercise was measured, before the start of the intake, after 4-week intake, and after 8-week intake to evaluate change in heart rate. In addition, a questionnaire on fatigue feeling was conducted before the start of the intake of the test supplements and after 8-week intake, and change in travel time was evaluated. […]

OC[C@H]1O[C@@H]2O[C@H]3[C@H](O)[C@@H](O)[C@@H](O[C@H]4[C@H](O)[C@@H](O)[C@@H](O[C@H]5[C@H](O)[C@@H](O)[C@@H](O[C@H]6[C@H](O)[C@@H](O)[C@@H](O[C@H]7[C@H](O)[C@@H](O)[C@@H](O[C@H]1[C@H](O)[C@H]2O)O[C@@H]7CO)O[C@@H]6CO)O[C@@H]5CO)O[C@@H]4CO)O[C@@H]3CO [α-cyclodextrin]
travel time for 10 km, change vs before intake, compared with placebo group: significantly less
